Reference: patent US20090118332A1, “Therapeutic Agents - 551” (AstraZeneca AB, priority 2006, published 2009)

What follows are molecules tested against T1, human Fatty Acid Synthase (Homo sapiens, UniProt P49327) (assay: Human FAS enzyme assay (decrease in NADPH fluorescence)). Settings: % inhibition at a concentration of 100 μmolar.
T1 construct: made in house
Assay type: biochemical
Protocol: Human and Rat FAS Enzyme Assay.
Fatty acid synthase is an enzyme complex that harbours seven enzymatic activities catalysing the reductive synthesis of long chain fatty acids from acetyl CoA and malonyl CoA to palmitate. When acetyl CoA and malonyl CoA are forming palmitate NADPH is consumed forming NADP. Since NADPH is fluorescent but not NADP the reaction can be measured by analysing the decrease in fluorescence.
Compounds were added to a black 384 well plate (Matrix) in a volume of 5 μl consisting of 20% DMSO and 80% Tris buffer pH 7.5, at a top concentration of 1 mM. NADPH, 30 μl of 166.6 μM, formulated in assay buffer (0.1M Tris ph7.5, 0.1 mM EDTA, 1 mM glutathione, 0.05% BSA), was then added to all of the wells of the plate. Fatty acid synthase Human or rat enzyme (0.4 μg, produced in house), dissolved in 20 mM Tris/HCl pH 7.5, 5 mM BOG, 1 mM TCEP, 10% glycerol, 1 mM EDTA, 150 mM NaCl, was then added to the plate in a volume of 10 μl. Enzyme was added to all but the last two columns of the plate, to which, 10 μl of assay buffer was added (0.1M Tris ph7.5, 0.1 mM EDTA, 1 mM glutathione, 0.05% BSA) to provide a no enzyme assay control. Following a 15-minute incubation period, at room temperature, the plates were read on an Envision plate reader using 340 nm excitation and 460 nm emission filters. This served as a time zero background read. Substrates (an equal mix of both malonyl and acetyl CoA) were then added to the plates in a total volume of 5 μl. The concentrations of malonyl and acetyl CoA in the mixture were 500 μM and 150 μM respectively. Both were prepared as 10 mM stock solutions in distilled water and were subsequently diluted to working concentrations in assay buffer. Plates were then incubated for a further 60 minutes, at room temperature, before being read again on the Envision reader using the same parameters as previously used. The data was analysed by subtracting the background time zero data from that generated following the final 60 minute incubate and the percent inhibition compared to the maximum and minimum assay controls was determined. Sigmoid curves were fitted using Origin 7.5 Client software and IC50 values were determined.

T1 sequence (P49327 whole entry): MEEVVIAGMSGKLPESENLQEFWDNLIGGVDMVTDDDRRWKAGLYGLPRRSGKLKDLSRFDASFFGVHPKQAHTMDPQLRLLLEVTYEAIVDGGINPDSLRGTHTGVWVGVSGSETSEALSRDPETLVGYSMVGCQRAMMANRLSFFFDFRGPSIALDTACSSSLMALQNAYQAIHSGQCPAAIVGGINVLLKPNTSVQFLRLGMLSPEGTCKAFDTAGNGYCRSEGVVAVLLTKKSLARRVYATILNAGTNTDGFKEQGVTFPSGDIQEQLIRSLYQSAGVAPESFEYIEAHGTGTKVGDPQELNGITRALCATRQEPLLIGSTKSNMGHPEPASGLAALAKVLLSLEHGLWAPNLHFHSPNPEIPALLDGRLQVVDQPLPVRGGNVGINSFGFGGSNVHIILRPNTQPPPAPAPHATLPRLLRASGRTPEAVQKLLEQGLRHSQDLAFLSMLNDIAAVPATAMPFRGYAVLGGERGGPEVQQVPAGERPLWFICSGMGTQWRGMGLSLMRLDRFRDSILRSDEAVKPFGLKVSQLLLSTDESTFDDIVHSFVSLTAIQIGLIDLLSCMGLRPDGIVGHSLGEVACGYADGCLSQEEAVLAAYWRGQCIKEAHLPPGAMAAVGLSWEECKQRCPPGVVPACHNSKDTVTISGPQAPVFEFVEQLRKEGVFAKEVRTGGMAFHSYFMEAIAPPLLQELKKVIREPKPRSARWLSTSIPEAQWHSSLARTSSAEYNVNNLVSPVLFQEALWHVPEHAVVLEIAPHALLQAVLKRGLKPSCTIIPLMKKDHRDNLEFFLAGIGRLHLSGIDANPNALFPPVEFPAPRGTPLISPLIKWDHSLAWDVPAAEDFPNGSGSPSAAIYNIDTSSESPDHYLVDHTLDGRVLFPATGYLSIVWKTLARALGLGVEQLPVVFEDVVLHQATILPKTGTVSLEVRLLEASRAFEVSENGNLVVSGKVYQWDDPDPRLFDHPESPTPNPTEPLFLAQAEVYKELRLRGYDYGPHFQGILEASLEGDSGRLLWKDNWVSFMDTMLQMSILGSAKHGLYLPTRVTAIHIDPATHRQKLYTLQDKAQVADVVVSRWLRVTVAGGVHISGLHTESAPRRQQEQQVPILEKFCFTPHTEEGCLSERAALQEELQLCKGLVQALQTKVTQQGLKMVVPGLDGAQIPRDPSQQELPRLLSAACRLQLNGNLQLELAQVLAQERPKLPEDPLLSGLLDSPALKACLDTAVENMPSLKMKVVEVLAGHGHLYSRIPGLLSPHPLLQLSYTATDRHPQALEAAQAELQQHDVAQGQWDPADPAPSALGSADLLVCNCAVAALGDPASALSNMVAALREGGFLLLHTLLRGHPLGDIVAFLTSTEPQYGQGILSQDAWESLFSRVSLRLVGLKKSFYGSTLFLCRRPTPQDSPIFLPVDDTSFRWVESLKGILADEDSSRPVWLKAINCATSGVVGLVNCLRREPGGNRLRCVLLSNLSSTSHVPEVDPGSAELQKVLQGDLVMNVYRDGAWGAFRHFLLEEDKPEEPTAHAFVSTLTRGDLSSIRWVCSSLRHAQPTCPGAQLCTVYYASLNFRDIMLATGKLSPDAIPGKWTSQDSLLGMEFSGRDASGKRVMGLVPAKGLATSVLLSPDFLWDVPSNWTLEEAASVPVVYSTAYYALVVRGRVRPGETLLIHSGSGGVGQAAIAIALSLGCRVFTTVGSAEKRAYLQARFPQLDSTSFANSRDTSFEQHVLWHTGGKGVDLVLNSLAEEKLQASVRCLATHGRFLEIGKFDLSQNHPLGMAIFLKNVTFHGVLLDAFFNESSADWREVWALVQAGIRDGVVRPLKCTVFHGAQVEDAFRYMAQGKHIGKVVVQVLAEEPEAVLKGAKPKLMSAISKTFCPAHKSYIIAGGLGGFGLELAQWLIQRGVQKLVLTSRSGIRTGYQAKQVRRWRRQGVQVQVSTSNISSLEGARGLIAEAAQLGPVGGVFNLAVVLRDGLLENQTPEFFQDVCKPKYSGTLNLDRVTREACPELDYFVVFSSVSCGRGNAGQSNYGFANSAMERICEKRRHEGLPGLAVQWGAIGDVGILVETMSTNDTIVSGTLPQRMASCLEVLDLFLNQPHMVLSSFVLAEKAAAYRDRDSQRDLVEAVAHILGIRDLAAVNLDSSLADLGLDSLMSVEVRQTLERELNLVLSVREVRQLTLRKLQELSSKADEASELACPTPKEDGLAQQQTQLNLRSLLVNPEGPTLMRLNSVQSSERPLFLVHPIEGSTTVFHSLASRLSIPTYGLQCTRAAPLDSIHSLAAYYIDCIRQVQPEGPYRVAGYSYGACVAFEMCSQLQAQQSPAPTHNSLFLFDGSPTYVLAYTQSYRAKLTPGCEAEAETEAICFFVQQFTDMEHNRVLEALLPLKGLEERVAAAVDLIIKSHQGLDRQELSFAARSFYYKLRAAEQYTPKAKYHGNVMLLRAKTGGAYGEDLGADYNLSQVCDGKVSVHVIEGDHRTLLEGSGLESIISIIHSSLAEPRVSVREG

Row | SMILES | inhibition at 100 µM [%]
1 | CCOC(=O)C(C)NC(=O)Nc1cc(C(=O)N2CCC(c3ccc(C#N)cc3)CC2)ccc1C (stereo not shown) [Example 385, Ethyl 2-[[5-[4-(4-cyanophenyl)piperidine-1-carbonyl]-2-methylphenyl]carbamoylamino]-propanoate] | 60.8
2 | Cc1ccc(C(=O)N2CCC(c3ccc(C#N)cc3)CC2)cc1NC(=O)NCc1cc(C)n(C)n1 [Example 257, 1-[5-[4-(4-cyanophenyl)piperidine-1-carbonyl]-2-methyl-phenyl]-3-[(1,5-dimethylpyrazol-3-yl)methyl]urea] | 86.2
3 | Cc1ccc(C(=O)N2CCC(c3ccc(C#N)cc3)CC2)cc1NC(=O)NCCC(=O)N(CCO)CCO [Example 242, 3-[[5-[4-(4-cyanophenyl)piperidine-1-carbonyl]-2-methyl-phenyl]carbamoylamino]-N,N-bis(2-hydroxyethyl)propanamide] | 90.6
4 | CC(=O)NCCNC(=O)Nc1cc(C(=O)N2CCC(c3ccc(C#N)cc3)CC2)ccc1C [Example 55, N-[2-[[5-[4-(4-cyanophenyl)piperidine-1-carbonyl]-2-methyl-phenyl]carbamoylamino]ethyl]acetamide] | 93.2
5 | Cc1ccc(C(=O)N2CCC(c3ccc(C#N)cc3)CC2)cc1NC(=O)NCC(C)(C)N [Example 203, 3-(2-amino-2-methyl-propyl)-1-[5-[4-(4-cyanophenyl)piperidine-1-carbonyl]-2-methyl-phenyl]urea] | 91
6 | Cc1ccc(C(=O)N2CCC(c3ccc(C#N)cc3)CC2)cc1NC(=O)NCc1cccc(C#N)c1 [Example 108, 3-[(3-cyanophenyl)methyl]-1-[5-[4-(4-cyanophenyl)piperidine-1-carbonyl]-2-methyl-phenyl]urea] | 91.8
7 | CC(=O)NC(C)(C)CNC(=O)Nc1cc(C(=O)N2CCC(c3ccc(C#N)cc3)CC2)ccc1C [Example 261, N-[1-[[5-[4-(4-cyanophenyl)piperidine-1-carbonyl]-2-methyl-phenyl]carbamoylamino]-2-methyl-propan-2-yl]acetamide] | 85.9
8 | CC(=O)N[C@H]1CC[C@H](NC(=O)Nc2cc(C(=O)N3CCC(c4ccc(C#N)cc4)CC3)ccc2C)C1 [Example 321, N-[(1S,3S)-3-[[5-[4-(4-cyanophenyl)piperidine-1-carbonyl]-2-methyl-phenyl]carbamoylamino]cyclopentyl]acetamide] | 96.7
9 | Cc1ccc(C(=O)N2CCC(c3ccc(C#N)cc3)CC2)cc1NC(=O)NCCCOC(C)C [Example 153, 1-[5-[4-(4-cyanophenyl)piperidine-1-carbonyl]-2-methyl-phenyl]-3-(3-propan-2-yloxypropyl)urea] | 88.2
10 | CC(=O)N(C)CCNC(=O)Nc1cc(C(=O)N2CCC(c3ccc(F)cc3)CC2)ccc1C [Example 352, N-[2-[[5-[4-(4-fluorophenyl)piperidine-1-carbonyl]-2-methyl-phenyl]carbamoylamino]ethyl]-N-methyl-acetamide] | 75.6
11 | Cc1ccc(NC(=O)NC2CC2)cc1C(=O)N1CCC(c2ccc(C#N)cc2)CC1 [Example 415, 1-[3-[4-(4-cyanophenyl)piperidine-1-carbonyl]-4-methylphenyl]-3-cyclopropylurea] | 78.2
12 | Cc1ccc(C(=O)N2CCC(c3ccc(C#N)cc3)CC2)cc1NC(=O)NCCCNC(=O)C(C)C [Example 274, N-[3-[[5-[4-(4-cyanophenyl)piperidine-1-carbonyl]-2-methyl-phenyl]carbamoylamino]propyl]-2-methyl-propanamide] | 86

Same assay, conditions: FAS enzyme assay, IC50 from fitted sigmoid curves

Row | SMILES | IC50, inhibition of human Fatty Acid Synthase
13 | CC(C)NC(=O)Nc1ccc([S+](C)[O-])c(C(=O)N2CCC(c3ccc(C#N)cc3)CC2)c1 (stereo not shown) [3-[3-[4-(4-cyanophenyl)piperidine-1-carbonyl]-4-methylsulfinylphenyl]-1-propan-2-ylurea] | do not have IC50s in the range of about 0.001 μM to about 30 μM
